Assay results taken from patent US6855490B2, “Method for attaching biological molecules to a glass surface” (Medical Discovery Partners LLC, priority 1999, dated 2005).
Primed or numbered codes have the meaning given here. FITC′ = fluorescein group attached to the epsilon side chain of lysine

Tests used:
[1] = molecular target: 1D5 monoclonal antibody; test: Fluorescence polarization assay of synthetic ER peptides; parameters: species or system mouse; conditions: binding to 1D5 monoclonal antibody, FITC-labelled peptide
Protocol: Large quantities of each of the selected phage are grown and nucleic acid extracted for sequence analysis. Based on the nucleotide sequence coding for the inserted ten-mer peptide, corresponding peptides are synthesized. Numerous commercial vendors provide peptide synthesis capabilities. The binding affinity of each of the selected peptide sequences for their antibodies is determined using Scatchard analysis. The percentage of antibodies binding to the peptide can be ascertained using fluorescence polarization analysis, provided that the peptide is fluorescently labeled. The specificity of binding for each peptide antigen mimic is tested using irrelevant, isotype-matched antibodies.
(§1) Three synthetic peptides (designated as ER peptide 3, ER peptide 4, and ER peptide 6), that are representative of above consensus phage sequence, were synthesized (by SynPep Labs, Dublin, Calif. and Bachem Labs, King of Prussia, Pa.) and tested for specificity/affinity to 1D5 monoclonal antibody.

[2] = system: 1D5 monoclonal antibody; test: Peptide ELISA of synthetic ER peptides; assay type: binding, mouse; conditions: compared among ER peptides 3, 4 and 6
Source text: as §1

- Kd [1]: ~1 nM
Substance: Ac-DFQCPYVECVVNAPGGK(FITC)GK-CONH2 (Ac-DFQCPYVECVVNAPGGK(FITC′)GK-NH2; cysteine pairing not given here) [ER peptide 3]
- Peptide ELISA signal [2]: highest signal
